Measured values from the supplement of paper PMC10011410.
± gives the standard deviation of the averaged measurements.

Experiments:
U-2 OS [1] = assay: relative cell count vs DMSO (cell painting) (fraction of DMSO control); higher = more cells remaining (less cytotoxic); conditions: 24 h
Method in brief: (§1)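 In this cell painting assay, roughly 1,500 U-2 OS cells per well in 384-well plates were pin-tool treated at 37 °C for 24 h, typically at six 2-fold steps from 20 μM down to 625 nM. Cells were stained with MitoTracker, concanavalin A, phalloidin, wheat germ agglutinin, Hoechst and SYTO 14, imaged on an Opera Phenix, and analysed in CellProfiler with normalization to same-plate DMSO cells. Reported values are means of four replicate plates, with the activity score defined as the Mahalanobis distance from DMSO wells and cell count defined relative to DMSO wells.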

U-2 OS [2] = assay: cell viability (CellTiter-Glo) relative to DMSO (% of control); higher = more viable; conditions: 24 h
Method in brief: (§2)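 In white low-volume 384-well plates, 750 U-2 OS cells per well were treated by pin tool after 24 h, most compounds at 20, 10 and 5 μM with 0.4% DMSO, and incubated for 24 h at 37 °C. Total glutathione and GSSG, or viability, were then read by luminescence using GSH/GSSG-Glo or CellTiter-Glo on separate plates. Values, corrected for background and row/column position, are given relative to vehicle or as a GSH:GSSG ratio.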

U-2 OS [3] = assay: AUC of culture confluence over time (live-cell imaging) (AUC (confluence % x time)); higher = more confluent culture (less growth inhibition)
Method in brief: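 Confluence of U-2 OS cells in F-12K medium with 10% FBS was tracked by live-cell imaging. Cells were seeded at 750 per well in 384-well plates and treated 24 h later by pin tool, with most compounds at 20, 10 and 5 μM and 0.2% DMSO. Cells were kept at 37 °C and imaged every 4 h for up to 60 h on an Incucyte S3 with a 10x objective. The value is the area under the confluence-versus-time curve.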

U-2 OS [4] = assay: intracellular GSH:GSSG ratio (calculated); higher = more reduced glutathione pool; conditions: 24 h
Method in brief: as §2

U-2 OS [5] = assay: cell painting activity score (Mahalanobis distance from DMSO wells); higher = stronger morphological phenotype; conditions: 24 h
Method in brief: as §1

U-2 OS [6] = assay: total intracellular glutathione (GSH + GSSG) relative to DMSO (% of control); higher = more glutathione; conditions: 24 h
Method in brief: as §2

| Structure (SMILES) | relative cell count (U-2 OS [1]; 0.625 µM) | relative cell count (U-2 OS [1]; 1.25 µM) | relative cell count (U-2 OS [1]; 2.5 µM) | relative cell count (U-2 OS [1]; 5 µM) | relative cell count (U-2 OS [1]; 10 µM) | relative cell count (U-2 OS [1]; 20 µM) | cell viability (U-2 OS [2]; 5 µM) | cell viability (U-2 OS [2]; 10 µM) | cell viability (U-2 OS [2]; 20 µM) | AUC of culture confluence over time (U-2 OS [3]; 5 µM) | AUC of culture confluence over time (U-2 OS [3]; 10 µM) | AUC of culture confluence over time (U-2 OS [3]; 20 µM) | intracellular GSH:GSSG ratio (U-2 OS [4]; 5 µM) | intracellular GSH:GSSG ratio (U-2 OS [4]; 10 µM) | intracellular GSH:GSSG ratio (U-2 OS [4]; 20 µM) | cell painting activity score (U-2 OS [5]; 0.625 µM) | cell painting activity score (U-2 OS [5]; 1.25 µM) | cell painting activity score (U-2 OS [5]; 2.5 µM) | cell painting activity score (U-2 OS [5]; 5 µM) | cell painting activity score (U-2 OS [5]; 10 µM) | cell painting activity score (U-2 OS [5]; 20 µM) | total intracellular glutathione (U-2 OS [6]; 5 µM) | total intracellular glutathione (U-2 OS [6]; 10 µM) | total intracellular glutathione (U-2 OS [6]; 20 µM) | AUC of culture confluence over time (U-2 OS [3]; 0.625 µM) | AUC of culture confluence over time (U-2 OS [3]; 1.25 µM) | AUC of culture confluence over time (U-2 OS [3]; 2.5 µM) | relative cell count (U-2 OS [1]; 40 µM) | relative cell count (U-2 OS [1]; 80 µM) | cell viability (U-2 OS [2]; 40 µM) | cell viability (U-2 OS [2]; 80 µM) | AUC of culture confluence over time (U-2 OS [3]; 40 µM) | AUC of culture confluence over time (U-2 OS [3]; 80 µM) | intracellular GSH:GSSG ratio (U-2 OS [4]; 40 µM) | intracellular GSH:GSSG ratio (U-2 OS [4]; 80 µM) | cell painting activity score (U-2 OS [5]; 40 µM) | cell painting activity score (U-2 OS [5]; 80 µM) | total intracellular glutathione (U-2 OS [6]; 40 µM) | total intracellular glutathione (U-2 OS [6]; 80 µM) |
| --- | --- | --- | --- | --- | --- | --- | --- | --- | --- | --- | --- | --- | --- | --- | --- | --- | --- | --- | --- | --- | --- | --- | --- | --- | --- | --- | --- | --- | --- | --- | --- | --- | --- | --- | --- | --- | --- | --- | --- |
| O=S1(=O)C=C(Sc2nn(-c3ccccc3)c(=S)s2)c2ccccc21 | 0.875 | 0.647 | 0.35 | 0.223 | 0.247 | 0.259 | 38.8 ± 8.9 | 30.5 ± 2.7 | 36.6 ± 8.1 | 17.7 | 15.9 | 16.3 | 11.7 | 7.07 | 2.96 | 11.4 | 11.7 | 19.6 | 17.8 | 20.4 | 18.2 | 65 ± 9.1 | 43.8 ± 9 | 29.2 ± 4.9 | – | – | – | – | – | – | – | – | – | – | – | – | – | – | – |
| O=C1CCC(=O)N1c1ccc(O)cc1 | 1.02 | 0.976 | 0.966 | 0.904 | 1.03 | 1.04 | 107 ± 6.3 | 106 ± 7.5 | 105 ± 5.4 | 48.1 | 42.4 | 43.3 | 43 | 32.2 | 56.3 | 4.12 | 3.43 | 3.81 | 3.52 | 4.26 | 2.95 | 105 ± 13 | 87.4 ± 4.5 | 102 ± 5.2 | – | – | – | – | – | – | – | – | – | – | – | – | – | – | – |
| COC[C@H]1OC(=O)c2coc3c2[C@@]1(C)C1=C(C3=O)[C@@H]2CCC(=O)[C@@]2(C)C[C@H]1OC(C)=O | 0.905 ± 0.054 | 0.905 ± 0.038 | 0.882 ± 0.07 | 0.873 ± 0.059 | 0.837 ± 0.065 | 0.785 ± 0.058 | 83.6 ± 1.5 | 76 ± 2.8 | 69.3 ± 1.1 | 49.5 | 38.5 | 28.4 | 26.3 | 27.5 | 21.8 | 7.82 ± 1.2 | 8.77 ± 1.2 | 8.96 ± 1.1 | 9.66 ± 1 | 10.4 ± 0.73 | 11.2 ± 0.66 | 85.3 ± 3.2 | 82.6 ± 4 | 76.8 ± 3.8 | 57.9 | 56.1 | 56.6 | – | – | – | – | – | – | – | – | – | – | – | – |
| CC(=O)c1c(O)c(C)c(O)c(Cc2c(O)c3c(c(C(=O)C=Cc4ccccc4)c2O)OC(C)(C)C=C3)c1O | 1.07 | 1.12 | 1.14 | 1.14 | 1.11 | 1.07 | 98.4 ± 1.9 | 93.9 ± 3.6 | 91.9 ± 4.7 | 39.9 | 35.4 | 29 | 25.1 | 24.3 | 26.6 | 4.78 | 3.41 | 4.37 | 3.79 | 6.83 | 11.2 | 95.7 ± 2.9 | 91.7 ± 4.9 | 89.9 ± 4.4 | – | – | – | 0.889 | 0.727 | 89 ± 4.1 | 78.4 ± 1.5 | 22.2 | 18.2 | 26.7 | 15 | 13.1 | 12.8 | 83.2 ± 1.9 | 84.2 ± 4.5 |
| CNC(=O)Nc1ccc2c(c1)CC[C@@]21OC(=O)N(CC(=O)N(Cc2ccc(F)cc2)[C@@H](C)C(F)(F)F)C1=O | 1.04 | 0.976 | 1.04 | 1.02 | 1.05 | 1 | 93.1 ± 1.9 | 83.6 ± 4.3 | 85.3 ± 5 | 44.7 | 44 | 42.6 | 27.9 | 31.4 | 30.9 | 8.32 | 8.2 | 8.22 | 8.54 | 9.44 | 10.2 | 81.7 ± 3.5 | 74.9 ± 6.2 | 79 ± 7.5 | – | – | – | – | – | – | – | – | – | – | – | – | – | – | – |
| CCCCCCCc1ccc(CCc2cccc(O)c2C(=O)O)cc1 | 1.05 | 1.11 | 1.12 | 1.11 | 1.11 | 0.741 | 98.6 ± 2.9 | 98.6 ± 4.4 | 94.4 ± 4.6 | 41.6 | 34.5 | 31.5 | 21.3 | 17.1 | 15.3 | 4.31 | 3.72 | 4.79 | 5.56 | 4.29 | 6.6 | 93.7 ± 3.8 | 93.1 ± 7.4 | 83.9 ± 4 | – | – | – | 0.307 | 0.365 | 66.6 ± 7.9 | 17.1 ± 8.5 | 24.6 | 17.9 | 15.7 | 11.3 | 19.1 | 23.3 | 62.5 ± 9.8 | 30.7 ± 11 |
| CC[C@]1(O)C[C@@H]2CN(CCc3c([nH]c4ccccc34)[C@@](C(=O)OC)(c3cc4c(cc3OC)N(C)[C@H]3[C@@](O)(C(=O)OC)[C@H](OC(C)=O)[C@]5(CC)C=CCN6CC[C@]43[C@@H]65)C2)C1 | 0.236 | 0.246 | 0.221 | 0.223 | 0.24 | 0.255 | 58.9 ± 5.4 | 57.8 ± 8.9 | 57.7 ± 2.6 | 18.2 | 17.6 | 20 | 2.94 | 2.94 | 2.96 | 27.2 | 24.9 | 24.9 | 24.2 | 24.4 | 24.4 | 60.6 ± 2.1 | 61.6 ± 7.3 | 60.5 ± 3.1 | – | – | – | – | – | – | – | – | – | – | – | – | – | – | – |
| COc1ccc(N(C(=O)CCl)C(C(=O)NCCc2ccccc2)c2cccs2)cc1Cl (stereo not drawn) | 0.916 | 0.7 | 0.657 | 0.209 | 0.198 | 0.29 | 64.5 ± 5.7 | 36.8 ± 12 | 8.23 ± 3.5 | 15.9 | 17.6 | 16.4 | 4.03 | 5.85 | – | 9.81 | 11 | 11.4 | 14.4 | 32.8 | 32.2 | 49.1 ± 4.8 | 23.5 ± 6.2 | 2.61 ± 0.21 | – | – | – | – | – | – | – | – | – | – | – | – | – | – | – |
